Entries after “also recorded” stand apart in the source; their conditions may differ. Where two headings read alike, the source gives them in different places.
Experiments:
[1] = target: T1, Link_TSG6 (Homo sapiens, UniProt P98066); test: ITC of HA oligosaccharides binding to Link_TSG6; details: for N: 0.029 mM Link_TSG6, 0.29 mM oligosaccharide
T1 construct: made in house
Method: ITC experiments were performed using a MicroCal PEAQ-ITC instrument (Malvern Instruments). Oligosaccharide stock solutions were prepared at 0.29 mM (in 5 mM MES, pH 6.0) and injected (18 × 2 μl with 120 s spacing between injections) into the cell containing ∼200 μl Link_TSG6 (0.029 mM) in matched buffer at 25 °C. Data were fit to a one site binding model, after subtracting the heats from the last three injections to account for heat of dilution of the oligosaccharide into buffer. Each oligosaccharide was analyzed in four independently performed ITC experiments.

[2] = target: T2, recombinant human TSG-6 (Homo sapiens, UniProt P19827+P98066); test: In vitro HC-transfer assay (IαI + rhTSG-6, Western blot anti-HC1); type: biochemical; details: 15 μM HA, 1.8 μM IαI, rhTSG-6, 2 h at 37 °C; for Substrate for HC transfer: Table 6; for Activity as substrate for HC transfer (text): Western blot anti-HC1
T2 construct: TSG-6–mediated HC-transfer assays (using full-length TSG6); purchased R&D Systems
Method: Covalent transfer of HC from IαI onto unmodified and chemically modified HA oligosaccharides was analyzed using the assay described previously ([26]). All reactions were performed using a buffer of 20 mM Hepes, pH 7.5, 150 mM NaCl, and 5 mM MgCl2. In a “standard” assay, HA oligosaccharides were at 15 μM, human IαI ([97]) 1.8 at μM (based on a molecular weight of 180 kDa), and recombinant human TSG-6 (R&D Systems) at 2.8 μM (based on a molecular weight of 35 kDa). Reaction mixtures were analyzed by SDS-PAGE using 4 to 12% bis-tris polyacrylamide gels (Invitrogen). For Western blot analysis, proteins were transferred onto nitrocellulose membrane (GE Healthcare) and incubated with antisera against HC1 (CP7, 1:10,000; ([98])). Bound primary antibody was detected using goat-anti-rabbit IgG conjugated to IR dye (LI-COR Biosciences) and blots imaged using an Odyssey Clx near-IR fluorescence imaging system (LICOR Biosciences).

[3] = target: T3, hisCD44_HABD^20–169 (Homo sapiens, UniProt P16070); test: MST of HA oligosaccharides binding to hisCD44_HABD^20–169; details: for Kd: 10 mM Hepes pH 7.5, 150 mM NaCl, 0.05% Tween-20, 25 °C, three titrations, read-out: KD; for % Binding affinity hisCD44_HABD^20–169: Table 6, relative to unmodified oligosaccharide of the same length, by MST
T3 construct: A novel construct consisting of residues 20 to 169 of human CD44 and an N-terminal six-histidine tag; made in house
Method: For hisCD44_HABD^20–169, interactions with HA oligosaccharides were assessed using MST. Protein (200 nM) was labeled with 5 μM red-Tris-NTA-650 dye following the manufacturer’s instructions in 10 mM Hepes, pH 7.4, 150 mM NaCl, 0.05% (v/v) Tween-20 (interaction buffer). Stock solutions of HA oligosaccharides (5 mM in interaction buffer) were serially diluted (1:1 in interaction buffer) 16 times before each concentration was mixed with an equal volume of labeled protein (10 nM final concentration hisCD44_HABD^20–169). Samples were loaded into standard glass capillaries (NanoTemper) and thermophoresis measured at 25 °C (with active temperature control) using a Monolith NT.115pico instrument (NanoTemper) running NT Control software (version 1.0.1). All experiments were performed in triplicate and data analyzed with the “KD fit model” in the NT Analysis software (version 2.0.2).

[4] = Table 1, ITC, 25 °C, 5 mM MES pH 6.0, mean ± SEM, four titrations
[5] = Table 1, ITC, 25 °C, 5 mM MES pH 6.0, mean ± SEM
[6] = Table 4, ITC, 25 °C, 5 mM MES pH 6.0, mean ± SEM

T2 sequence (P98066 18-277): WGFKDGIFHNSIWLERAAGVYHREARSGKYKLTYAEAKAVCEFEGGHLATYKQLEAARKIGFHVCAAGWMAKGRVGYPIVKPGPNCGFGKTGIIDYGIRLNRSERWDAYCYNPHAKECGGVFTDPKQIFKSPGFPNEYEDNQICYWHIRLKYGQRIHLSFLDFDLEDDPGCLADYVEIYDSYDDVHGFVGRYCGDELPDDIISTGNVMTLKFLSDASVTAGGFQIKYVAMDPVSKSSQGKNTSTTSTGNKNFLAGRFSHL
T2 sequence (P19827 35-672 limits assumed): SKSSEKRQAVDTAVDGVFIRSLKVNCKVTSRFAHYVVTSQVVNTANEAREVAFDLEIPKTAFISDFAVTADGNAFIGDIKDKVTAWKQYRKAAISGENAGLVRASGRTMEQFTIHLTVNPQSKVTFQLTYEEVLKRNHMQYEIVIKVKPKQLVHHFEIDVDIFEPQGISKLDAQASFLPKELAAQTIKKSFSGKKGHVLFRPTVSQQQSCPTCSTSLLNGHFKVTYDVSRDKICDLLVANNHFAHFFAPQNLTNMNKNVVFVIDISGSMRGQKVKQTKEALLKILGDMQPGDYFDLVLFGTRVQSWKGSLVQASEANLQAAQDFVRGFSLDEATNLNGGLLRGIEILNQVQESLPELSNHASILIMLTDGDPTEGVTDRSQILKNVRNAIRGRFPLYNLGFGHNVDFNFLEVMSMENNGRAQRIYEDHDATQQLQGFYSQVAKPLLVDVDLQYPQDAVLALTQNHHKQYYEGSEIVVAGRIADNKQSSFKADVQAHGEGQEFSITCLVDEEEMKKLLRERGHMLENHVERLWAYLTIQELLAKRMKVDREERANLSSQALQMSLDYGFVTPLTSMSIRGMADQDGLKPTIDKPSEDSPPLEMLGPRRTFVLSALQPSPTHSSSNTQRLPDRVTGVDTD
T1 sequence (P98066 36-129 limits assumed): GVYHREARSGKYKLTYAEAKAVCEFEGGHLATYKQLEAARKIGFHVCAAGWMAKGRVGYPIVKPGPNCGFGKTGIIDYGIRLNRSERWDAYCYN
T3 sequence (P16070 20-169): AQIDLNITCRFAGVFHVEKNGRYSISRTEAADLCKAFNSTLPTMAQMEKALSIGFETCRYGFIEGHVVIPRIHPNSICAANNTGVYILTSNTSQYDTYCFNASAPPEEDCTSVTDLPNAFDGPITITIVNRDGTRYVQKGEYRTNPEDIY

SMILES	N [1, 4]	ΔG [1, 5] [kcal/mol]	ΔH [1, 5] [kcal/mol]	−TΔS [1, 5] [kcal/mol]	Substrate for HC transfer [2]	Activity as substrate for HC transfer (text) [2]	other results
CC(=O)N[C@H]1[C@H](O[C@H]2[C@H](O)[C@@H](O)[C@H](O[C@H]3[C@H](O)[C@@H](CO)O[C@@H](O[C@H]4[C@H](O)[C@@H](O)[C@H](O[C@@H]([C@H](O)[C@H](O)CO)[C@H](CNc5cccc(C(=O)O)c5)NC(C)=O)O[C@@H]4C(=O)O)[C@@H]3NC(C)=O)O[C@@H]2C(=O)O)O[C@H](CO)[C@@H](O)[C@@H]1O[C@@H]1O[C@H](C(=O)O)[C@@H](O)[C@H](O)[C@H]1O [HA6-3AA]	1.05 ± 0.02	-8.61 ± 0.10	-6.30 ± 0.11	-2.21 ± 0.83	No	No HC•HA6 complexes were observed	Activity as substrate for HC transfer (text) ([2]; listed as HA63AA): could become covalently coupled to an HC
CC(=O)N[C@H]1[C@H](O[C@H]2[C@H](O)[C@@H](O)[C@H](O[C@H]3[C@H](O)[C@@H](CO)O[C@@H](O[C@H]4[C@H](O)[C@@H](O)[C@H](O[C@H]5[C@H](O)[C@@H](CO)O[C@@H](O[C@H]6[C@H](O)[C@@H](O)[C@H](O[C@@H]([C@H](O)[C@H](O)CO)[C@H](CNc7cccc8c7CCC8)NC(C)=O)O[C@@H]6C(=O)O)[C@@H]5NC(C)=O)O[C@@H]4C(=O)O)[C@@H]3NC(C)=O)O[C@@H]2C(=O)O)O[C@H](CO)[C@@H](O)[C@@H]1O[C@@H]1O[C@H](C(=O)O)[C@@H](O)[C@H](O)[C@H]1O [HA8-4AI]	–	–	–	–	Yes	–	N ([1]; Table 4, ITC, 25 °C, 5 mM MES pH 6.0, mean ± SEM, four titrations): 1.01 ± 0.02; ΔG [1, 6]: -9.15 ± 0.16 kcal/mol; ΔH [1, 6]: -7.02 ± 0.40 kcal/mol; −TΔS [1, 6]: −2.13 ± 0.53 kcal•mol^a1; Kd ([1]; Table 4, ITC, 25 °C, 5 mM MES pH 6.0, mean ± SEM, four titrations, read-out: KD): 0.22 ± 0.05 µM; % Binding affinity Link_TSG6 ([1]; Table 6, relative to unmodified oligosaccharide of the same length, by ITC): 141%; % of binding to hisCD44_HABD^20–169 compared to the unmodified oligosaccharide of the same length ([3]; MST): 37%; % HAx^AN: percentage of binding affinity (KB) compared to the unmodified oligosaccharide of the same length ([3]; Table 5, MST): 37%; Kd ([3]; Table 5, MST, mean ± SD): 139 ± 43 µM; % Binding affinity hisCD44_HABD^20–169 [3]: 37%
CC(=O)N[C@H]1[C@H](O[C@H]2[C@H](O)[C@@H](O)[C@H](O[C@H]3[C@H](O)[C@@H](CO)O[C@@H](O[C@H]4[C@H](O)[C@@H](O)[C@H](O[C@H]5[C@H](O)[C@@H](CO)O[C@@H](O[C@H]6[C@H](O)[C@@H](O)[C@H](O[C@@H]([C@H](O)[C@H](O)CO)[C@H](CNc7ccc(C(=O)O)cc7)NC(C)=O)O[C@@H]6C(=O)O)[C@@H]5NC(C)=O)O[C@@H]4C(=O)O)[C@@H]3NC(C)=O)O[C@@H]2C(=O)O)O[C@H](CO)[C@@H](O)[C@@H]1O[C@@H]1O[C@H](C(=O)O)[C@@H](O)[C@H](O)[C@H]1O [HA8-4AA]	0.86 ± 0.02	-8.37 ± 0.04	-11.53 ± 0.25	3.17 ± 0.26	Yes	somewhat weaker substrate than HA8^AN	–
CC(=O)N[C@H]1[C@H](O[C@H]2[C@H](O)[C@@H](O)[C@H](O[C@H]3[C@H](O)[C@@H](CO)O[C@@H](O[C@H]4[C@H](O)[C@@H](O)[C@H](O[C@@H]([C@H](O)[C@H](O)CO)[C@H](CNc5ccc(C(=O)O)cc5)NC(C)=O)O[C@@H]4C(=O)O)[C@@H]3NC(C)=O)O[C@@H]2C(=O)O)O[C@H](CO)[C@@H](O)[C@@H]1O[C@@H]1O[C@H](C(=O)O)[C@@H](O)[C@H](O)[C@H]1O [HA6-4AA]	1.02 ± 0.05	-8.40 ± 0.08	-7.57 ± 0.26	-0.83 ± 0.34	Yes	weak substrates	–
CC(=O)N[C@H]1[C@H](O[C@H]2[C@H](O)[C@@H](O)[C@H](O[C@H]3[C@H](O)[C@@H](CO)O[C@@H](O[C@H]4[C@H](O)[C@@H](O)[C@H](O[C@@H]([C@H](O)[C@H](O)CO)[C@H](CNc5ccccc5C(=O)O)NC(C)=O)O[C@@H]4C(=O)O)[C@@H]3NC(C)=O)O[C@@H]2C(=O)O)O[C@H](CO)[C@@H](O)[C@@H]1O[C@@H]1O[C@H](C(=O)O)[C@@H](O)[C@H](O)[C@H]1O [HA6-2AA]	1.03 ± 0.02	-8.50 ± 0.04	-7.84 ± 0.43	-0.66 ± 0.41	Yes	good substrates; also recorded: could become covalently coupled to an HC	–
CC(=O)N[C@H]1[C@H](O[C@H]2[C@H](O)[C@@H](O)[C@H](O[C@@H]([C@H](O)[C@H](O)CO)[C@H](CNc3cccc(C(=O)O)c3)NC(C)=O)O[C@@H]2C(=O)O)O[C@H](CO)[C@@H](O)[C@@H]1O[C@@H]1O[C@H](C(=O)O)[C@@H](O)[C@H](O)[C@H]1O [HA4-3AA]	–	–	–	–	No	–	% of binding to hisCD44_HABD^20–169 compared to the unmodified oligosaccharide of the same length ([3]; MST): 260%; % HAn^AN: percentage of binding affinity (KB) compared to the unmodified oligosaccharide of the same length ([3]; Table 2, MST): 260%; Kd ([3]; Table 2, MST, mean (±SD)): 845 µM; % Binding affinity hisCD44_HABD^20–169 [3]: 260%
CC(=O)N[C@H]1[C@H](O[C@H]2[C@H](O)[C@@H](O)[C@H](O[C@H]3[C@H](O)[C@@H](CO)O[C@@H](O[C@H]4[C@H](O)[C@@H](O)[C@H](O[C@H]5[C@H](O)[C@@H](CO)O[C@@H](O[C@H]6[C@H](O)[C@@H](O)[C@H](O[C@@H]([C@H](O)[C@H](O)CO)[C@H](CNc7ccccc7C(=O)O)NC(C)=O)O[C@@H]6C(=O)O)[C@@H]5NC(C)=O)O[C@@H]4C(=O)O)[C@@H]3NC(C)=O)O[C@@H]2C(=O)O)O[C@H](CO)[C@@H](O)[C@@H]1O[C@@H]1O[C@H](C(=O)O)[C@@H](O)[C@H](O)[C@H]1O [HA8-2AA]	1.06 ± 0.03	-7.83 ± 0.13	-12.55 ± 0.59	4.69 ± 0.73	Yes	retained full activity as substrates	–
CC(=O)N[C@H]1[C@H](O[C@H]2[C@H](O)[C@@H](O)[C@H](O[C@H]3[C@H](O)[C@@H](CO)O[C@@H](O[C@H]4[C@H](O)[C@@H](O)[C@H](O[C@H]5[C@H](O)[C@@H](CO)O[C@@H](O[C@H]6[C@H](O)[C@@H](O)[C@H](O[C@@H]([C@H](O)[C@H](O)CO)[C@H](CNc7cccc(C(=O)O)c7)NC(C)=O)O[C@@H]6C(=O)O)[C@@H]5NC(C)=O)O[C@@H]4C(=O)O)[C@@H]3NC(C)=O)O[C@@H]2C(=O)O)O[C@H](CO)[C@@H](O)[C@@H]1O[C@@H]1O[C@H](C(=O)O)[C@@H](O)[C@H](O)[C@H]1O [HA8-3AA]	1.05 ± 0.03	-8.95 ± 0.13	-8.53 ± 0.33	-0.60 ± 0.09	Yes	–	–

Source: PMC11460632, “Chemical modification of hyaluronan oligosaccharides differentially modulates hyaluronan–hyaladherin interactions” (The Journal of Biological Chemistry, 2024)
